What is called ΔTm is the change in melting temperature against a reference sample.

What all share (assay): UV melting at 260 nm
For assay [1], the system named is p(dAdT)2 (DNA, polymer) AT. The settings on record: Na+ (sodium cacodylate, I = 0.05 M); sodium cacodylate pH 7.0; r = [compound]/[polynucleotide] = 0.2; per base.
Another assay concerns pApU (RNA, polymer) A/U. The settings on record: Na+ (sodium cacodylate, I = 0.05 M); sodium cacodylate pH 7.0; r = [compound]/[polynucleotide] = 0.2; per base.
For assay [2], the system named is polyAH+-polyAH+ (RNA, polymer, protonated adenines (pH 5)) A. The conditions noted are these: Na+ (sodium cacodylate, I = 0.05 M); sodium cacodylate pH 5.0; r = 0.2; second transition of poly A-poly U (free Tm 80.1 °C); per base.

Take `COC(=O)C(Cc1cn(CCCCN2C=CC(=Cc3sc4ccc(Br)cc4[n+]3C)c3ccccc32)nn1)NC(=O)c1ccc(C(=O)NC(=N)N)[nH]1` (stereo not drawn): the ΔTm in assay [1] turned out to be 1.1 ± 0.5 °C; in the assay on pApU (RNA, polymer) A/U it was 3.0 ± 0.5 °C; in assay [2], 1.0 ± 0.5 °C.
The matching figures for `COC(=O)C(Cc1cn(CCCC[n+]2c(C=C3C=CN(C)c4ccccc43)sc3ccc(Br)cc32)nn1)NC(=O)c1ccc(C(=O)NC(=N)N)[nH]1` (stereo not drawn): 0.3 ± 0.5 °C, 1.0 ± 0.5 °C and 1.0 ± 0.5 °C.

The values are drawn from publication PMC7583847 (2020).
